By IC50 is commonly meant the concentration that gives 50% inhibition.

This experiment concerns the target Factor D (Homo sapiens (Human), UniProt P00746). The experiment is described as follows: biochemical. Format: biochemical. The following applies: read-out: IC50.

Chain of Factor D (P00746 26-253): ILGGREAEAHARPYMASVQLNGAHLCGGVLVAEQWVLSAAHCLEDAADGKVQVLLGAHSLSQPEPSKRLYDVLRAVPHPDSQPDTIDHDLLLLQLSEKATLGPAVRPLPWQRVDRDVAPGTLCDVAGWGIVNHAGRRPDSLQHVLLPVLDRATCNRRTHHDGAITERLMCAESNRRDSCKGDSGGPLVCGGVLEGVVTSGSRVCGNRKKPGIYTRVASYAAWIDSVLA

For `NC(=O)n1cc(NC(=O)N2CCS[C@H]2C(=O)Nc2cc(Br)cc(C(=O)O)c2)c2ccccc21` [Example 341, 3-Bromo-5-{[(S)-3-(1-carbamoyl-1H-indol-3-ylcarbamoyl)-thiazolidine-2-carbonyl]-amino}-benzoic acid], the IC50 was 95 nM.

Consider `COc1ccc2c(c1)c(NC(=O)N1[C@@H]3C[C@@H]3C[C@H]1C(=O)Nc1cc(Br)cc(C(=O)O)c1)cn2C(N)=O` [Example 342, 3-Bromo-5-{[(1R,3S,5R)-2-(1-carbamoyl-5-methoxy-1H-indol-3-ylcarbamoyl)-2-aza-bicyclo[3.1.0]hexane-3-carbonyl]-amino}-benzoic acid], for which the IC50 is 55 nM. On to `NC(=O)n1cc(NC(=O)N2C[C@H](F)C[C@H]2C(=O)Nc2cc(C(=O)O)cc(Br)c2F)c2ccccc21` [Example 343, 3-Bromo-5-{[(2S,4R)-1-(1-carbamoyl-1H-indol-3-ylcarbamoyl)-4-fluoro-pyrrolidine-2-carbonyl]-amino}-4-fluoro-benzoic acid], for which the IC50 stood at 30 nM.

In the case of `NC(=O)n1cc(NC(=O)N2[C@@H]3C[C@@H]3C[C@H]2C(=O)Nc2cc(Br)cc(-c3nnn[nH]3)c2)c2ccccc21` [Example 344, (1R,3S,5R)-2-Aza-bicyclo[3.1.0]hexane-2,3-dicarboxylic acid 3-{[3-bromo-5-(1H-tetrazol-5-yl)-phenyl]-amide}2-[(1-carbamoyl-1H-indol-3-yl)-amide]], the IC50 worked out at 68 nM.

As to `CC(C)(C)n1nnnc1-c1cc(Br)cc(NC(=O)[C@@H]2C[C@H]3C[C@H]3N2C(=O)Nc2cn(C(N)=O)c3ccccc23)c1` [Example 345, (1R,3S,5R)-2-Aza-bicyclo[3.1.0]hexane-2,3-dicarboxylic acid 3-{[3-bromo-5-(1-tert-butyl-1H-tetrazol-5-yl)-phenyl]-amide}2-[(1-carbamoyl-1H-indol-3-yl)-amide]], the IC50 stood at 800 nM. With `NC(=O)n1cc(NC(=O)N2C[C@H](F)C[C@H]2C(=O)NCc2cc(-c3nnn[nH]3)cc(Cl)c2F)c2ccccc21` [Example 346, (2S,4R)-4-Fluoro-pyrrolidine-1,2-dicarboxylic acid 1-[(1-carbamoyl-1H-indol-3-yl)-amide]2-[3-chloro-2-fluoro-5-(1H-tetrazol-5-yl)-benzylamide]] the figure was 69 nM; with `CC(C)(C)n1nnnc1-c1cc(Cl)c(F)c(CNC(=O)[C@@H]2C[C@@H](F)CN2C(=O)Nc2cn(C(N)=O)c3ccccc23)c1` [Example 347, (2S,4R)-4-Fluoro-pyrrolidine-1,2-dicarboxylic acid 2-[5-(1-tert-butyl-1H-tetrazol-5-yl)-3-chloro-2-fluoro-benzylamide]1-[(1-carbamoyl-1H-indol-3-yl)-amide]], 677 nM. Next, `NC(=O)n1cc(NC(=O)N2CC[C@H](F)[C@H]2C(=O)NCc2cccc(Cl)c2)c2ccccc21` [Example 348, 2R,3S)-3-Fluoro-pyrrolidine-1,2-dicarboxylic acid 1-[(1-carbamoyl-1H-indol-3-yl)-amide]2-(3-chloro-benzylamide]: 200 nM. For the molecule `NC(=O)n1cc(NC(=O)N2CC[C@@H](F)[C@H]2C(=O)NCc2cccc(Cl)c2)c2ccccc21` [Example 349, 2R,3R)-3-Fluoro-pyrrolidine-1,2-dicarboxylic acid 1-[(1-carbamoyl-1H-indol-3-yl)-amide]2-(3-chloro-benzylamide], the IC50 came out at 150 nM. For `C[C@@H]1CC[C@@H](C(=O)NCc2cccc(Cl)c2F)N1C(=O)Nc1cn(C(N)=O)c2ccccc12` [Example 350, 2S,5R)-5-Methyl-pyrrolidine-1,2-dicarboxylic acid 1-[(1-carbamoyl-1H-indol-3-yl)-amide]2-(3-chloro-2-fluoro-benzylamide], the IC50 amounted to 85 nM.

For the molecule `CC[C@@H]1CC[C@@H](C(=O)NCc2cccc(Cl)c2F)N1C(=O)Nc1cn(C(N)=O)c2ccccc12` [Example 351, 2S,5R)-5-Ethyl-pyrrolidine-1,2-dicarboxylic acid 1-[(1-carbamoyl-1H-indol-3-yl)-amide]2-(3-chloro-2-fluoro-benzylamide], the IC50 came to 600 nM. Turning to `NC(=O)n1cc(NC(=O)N2C[C@H](CO)C[C@H]2C(=O)NCc2cccc(Cl)c2F)c2ccccc21` [Example 352, 2S,4R)-4-Hydroxymethyl-pyrrolidine-1,2-dicarboxylic acid 1-[(1-carbamoyl-1H-indol-3-yl)-amide]2-(3-chloro-2-fluoro-benzylamide], the IC50 came out at 200 nM. With `COC(=O)[C@H]1C[C@@H](C(=O)NCc2c(F)ccc(Cl)c2F)N(C(=O)Nc2cn(C(N)=O)c3ccccc23)C1` [Example 353, (3S,5S)-1-(1-carbamoyl-1H-indol-3-ylcarbamoyl)-5-(3-chloro-2,6-difluoro-benzylcarbamoyl)-pyrrolidine-3-carboxylic acid methyl ester] the figure was 252 nM; with `NC(=O)n1cc(NC(=O)N2C[C@@H](C(=O)O)C[C@H]2C(=O)NCc2c(F)ccc(Cl)c2F)c2ccccc21` [Example 354, (3S,5S)-1-(1-Carbamoyl-1H-indol-3-ylcarbamoyl)-5-(3-chloro-2,6-difluoro-benzylcarbamoyl)-pyrrolidine-3-carboxylic acid], 1660 nM; with `NC(=O)n1cc(NC(=O)N2C[C@@H](CO)C[C@H]2C(=O)NCc2cccc(Br)c2F)c2ccccc21` [Example 355, (2S,4S)-4-Hydroxymethyl-pyrrolidine-1,2-dicarboxylic acid 2-(3-bromo-2-fluoro-benzylamide) 1-[(1-carbamoyl-1H-indol-3-yl)-amide]], 104 nM.

As for `NC(=O)n1cc(NC(=O)N2C[C@](F)(CO)C[C@H]2C(=O)NCc2cccc(Cl)c2F)c2ccccc21` [Example 356, 2S,4S)-4-Fluoro-4-hydroxymethyl-pyrrolidine-1,2-dicarboxylic acid 1-[(1-carbamoyl-1H-indol-3-yl)-amide]2-(3-chloro-2-fluoro-benzylamide], the IC50 amounted to 480 nM. Next, `NC(=O)n1cc(NC(=O)N2[C@H]3C[C@@]3(CO)C[C@H]2C(=O)NCc2cccc(Cl)c2F)c2ccccc21` [Example 357, 1S,3S,5R)-5-Hydroxymethyl-2-aza-bicyclo[3.1.0]hexane-2,3-dicarboxylic acid 2-[(1-carbamoyl-1H-indol-3-yl)-amide]3-(3-chloro-2-fluoro-benzylamide]: 389 nM; `NC(=O)n1cc(NC(=O)N2[C@H](C(=O)NCc3cccc(Cl)c3F)C[C@@]3(CO)C[C@@H]23)c2ccccc21` [Example 358, 1R,3S,5S)-5-Hydroxymethyl-2-aza-bicyclo[3.1.0]hexane-2,3-dicarboxylic acid 2-[(1-carbamoyl-1H-indol-3-yl)-amide]3-(3-chloro-2-fluoro-benzylamide]: 8 nM. For `NC(=O)n1cc(NC(=O)N2C[C@@H](C(F)F)C[C@H]2C(=O)NCc2cccc(Cl)c2F)c2ccccc21` [Example 359, 2S,4S)-4-Difluoromethyl-pyrrolidine-1,2-dicarboxylic acid 1-[(1-carbamoyl-1H-indol-3-yl)-amide]2-(3-chloro-2-fluoro-benzylamide], the IC50 was determined as 250 nM. With `NC(=O)n1cc(NC(=O)N2[C@@H](CO)CC[C@H]2C(=O)Nc2cccc(OC(F)(F)F)c2)c2ccccc21` [Example 360, (2S,5R)-5-Hydroxymethyl-pyrrolidine-1,2-dicarboxylic acid 1-[(1-carbamoyl-1H-indol-3-yl)-amide]2-[(3-trifluoromethoxy-phenyl)-amide]] the figure was 1000 nM.
